The results in this text go back to the METLIN SMRT retention time set (Domingo-Almenara et al. 2019).

A short description of the data set: gradient 5% acetonitrile 3 min, to 50% in 2 min, to 85% in 15 min, held 3 min, 100 µL/min. The following applies: column: Zorbax Extend-C18 2.1 x 50 mm; eluents: water / acetonitrile, 0.1% formic acid. An outline of the steps: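 Using water and acetonitrile that each contained 0.1% formic acid, mixtures of ~100 pure standards were separated at 100 μL/min on a Zorbax Extend-C18 column (2.1 × 50 mm, 1.8 μm). The HPLC fed a quadrupole time-of-flight mass spectrometer working in positive and negative ionization mode, with dead and dwell volumes of 40 μL and 900 μL. Data were acquired over 3 months. Retention time was read from computationally picked adduct peaks after manual inspection of each.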
`O=C(O)Cn1c(-c2cccnc2)nc2ccccc21` yielded an RP-LC retention time of 564 s.

On to `Cc1ccc2nc(C)cc(C(=O)NCC(C)C)c2c1`, for which the RP-LC retention time came to 631 s.

Turning to `CC1CC(=O)N(CC(=O)Nc2cccc([N+](=O)[O-])c2)c2ccccc2S1` (stereo not drawn), the RP-LC retention time amounted to 843 s.

`Cc1ccccc1-c1nc(N)n(C(=O)C2CC2)n1` had an RP-LC retention time of 876 s.

`Cc1cc(NC(=O)c2sc(NCc3ccco3)nc2C)ccc1Cl` came in with an RP-LC retention time of 956 s.

Take `Cc1cc(C)cc(C(=O)N2CCCC(C(=O)Nc3ccc(Br)c(C)c3)C2)c1` (stereo not drawn): the RP-LC retention time was determined as 1110 s.

Compound `Cc1ccc(CNC2=NCCNC23CCN(S(=O)(=O)c2ccccc2C)CC3)cc1` returned an RP-LC retention time of 738 s.

Take `CCCN1CCN(c2ccc(-c3nc(-c4cccc(F)c4)no3)cn2)CC1`: the RP-LC retention time was 739 s.

As for `O=C(NC1CCN(c2cc(-c3ccc(F)cc3)[nH]n2)C1)c1ccccc1F` (stereo not drawn), the RP-LC retention time is 714 s.

In turn, `CCOC(=O)c1ccc(NC(=O)NCC(c2cccnc2)c2cn(C)c3ccccc23)cc1` (stereo not drawn) had an RP-LC retention time of 824 s.

As for `O=C(Cn1ncc2c3ccccc3n(Cc3ccccc3)c2c1=O)N1CCN(c2ncccn2)CC1`, the RP-LC retention time was found to be 902 s.

`CCOC(=O)C(CC)n1cccc1-c1nc(-c2cccnc2)no1` (stereo not drawn) registered an RP-LC retention time of 1010 s.

With `Cc1ccc(CN(C(=O)C(C)Oc2ccc(Cl)c(C)c2)C2CCS(=O)(=O)C2)o1` (stereo not drawn), the RP-LC retention time was 1020 s.

For `COc1ccc(C(C)NC(=O)C2=C3CCCN3c3ccccc3S2(=O)=O)cc1OC` (stereo not drawn), the RP-LC retention time amounted to 779 s.

Compound `Cc1cccc(S(=O)(=O)NC2CCN(c3ccccc3)C2=O)c1` (stereo not drawn) showed an RP-LC retention time of 875 s.

`Cc1nc2cc(N3CCC(C(=O)Nc4ccc(Cl)cc4)CC3)cnc2nc1C` yielded an RP-LC retention time of 790 s.

As to `Cc1ccccc1NS(=O)(=O)c1c(C)c(-c2nnc(C3CCC3)o2)n(C)c1C`, the RP-LC retention time was 966 s.

On to `CCC(=O)N1CCc2sc(C(=O)NC3CCN(Cc4ccccc4)CC3)cc2C1`, for which the RP-LC retention time was found to be 604 s.

In turn, `COc1cccc2sc(N(C)CC(=O)N3CCn4c3nc3ccccc34)nc12` displayed an RP-LC retention time of 758 s.

`CCc1cccc(C)c1Nc1c(-c2ccc(SC)cc2)nc2nc(C)cc(C)n12` displayed an RP-LC retention time of 867 s.

On to `CCOCCCNC(=O)C1c2ccccc2C(=O)N(C2CCCC2)C1c1cccs1` (stereo not drawn), for which the RP-LC retention time is 882 s.

The compound `O=S1(=O)C[C@H](N2CCN(Cc3ccccc3)CC2)[C@@H](S(=O)(=O)c2ccc(F)cc2)C1` showed an RP-LC retention time of 647 s.

As to `COc1cc(Cl)c(C)cc1NC(=O)c1c(C)cc(C)cc1C`, the RP-LC retention time came out at 1150 s.

On to `CCC(C(=O)Nc1ccc(-c2cn3ccc(C)nc3n2)cc1)c1ccccc1` (stereo not drawn), for which the RP-LC retention time came out at 705 s.

Turning to `CCN(C(=O)c1nc(C)n(C2CCN(S(C)(=O)=O)CC2)c1C)c1ccccc1`, the RP-LC retention time was 610 s.

Take `COCCCN1CN=C(Nc2nc(C)c3cc(OC)ccc3n2)NC1`: the RP-LC retention time came to 643 s.

`CC1Oc2ccc(S(=O)(=O)N3CCC(C(=O)Nc4ccc(F)c(Cl)c4)CC3)cc2NC1=O` (stereo not drawn) displayed an RP-LC retention time of 902 s.

In turn, `CCOc1ccc(CNC(=O)C2CCN(Cc3cn(CC)c4ccc(OC)cc34)CC2)cc1` came in with an RP-LC retention time of 723 s.

`COc1cccc(-n2cc(C(=O)OCC(=O)OC(C)(C)C)c3ccccc3c2=O)c1` displayed an RP-LC retention time of 1140 s.

`Cc1cc(N2CCN(C)CC2)nc2ccc(NC(=O)NCCc3ccccc3)cc12` showed an RP-LC retention time of 614 s.

In the case of `Cc1ccc(Nc2nc(C)cc(N3CCN(S(=O)(=O)c4c(C)cc(C)cc4C)CC3)n2)cc1`, the RP-LC retention time turned out to be 917 s.

In turn, `CCN1CCC(N(Cc2cccs2)C(=O)Nc2cc(OC)cc(OC)c2)CC1` came in with an RP-LC retention time of 651 s.

Compound `O=C(NCc1ccnc(N2CCSCC2)c1)Nc1ccc(F)c(Cl)c1` came in with an RP-LC retention time of 673 s.

`O=C(NC1CC1)c1cccn1Cc1noc(-c2ccccc2)n1` registered an RP-LC retention time of 840 s.

With `Cn1cc(CN2CCC(C(=O)NCCCN3CCc4ccccc4C3)CC2)c2cc(Cl)ccc21`, the RP-LC retention time stood at 878 s.

Regarding `O=C(Cn1cnc2nc(N3CCOCC3)ncc2c1=O)Nc1ccc2c(c1)OCCO2`, the RP-LC retention time was 658 s.

On to `O=C(NCCCN1CCCC1=O)c1ccc(-n2nnc3cccnc32)cc1`, for which the RP-LC retention time was 637 s.

As for `O=C(CN1CCN(C(=O)Nc2ccccc2)CC1=O)NC1CCCCCC1`, the RP-LC retention time turned out to be 721 s.

Regarding `CC1CCC2(CC1)NC(=O)N(CC(=O)Nc1ccc3c(c1)OCCO3)C2=O` (stereo not drawn), the RP-LC retention time was found to be 783 s.

As to `Fc1ccc(-c2n[nH]c(C3CCN(C4CCCC4)CC3)n2)cc1`, the RP-LC retention time was determined as 611 s.

With `COc1ccc(C2(C(=O)N3CCCOCCNC(=O)[C@@H]4CCC[C@@H]43)CC2)cc1`, the RP-LC retention time was 711 s.

`Cc1cc(NC(=O)C(=O)NCC(O)c2cccc3ccccc23)no1` (stereo not drawn) gave an RP-LC retention time of 734 s.

The compound `COc1ccc(NS(=O)(=O)c2cc(-c3[nH]ncc3C(=O)N3CCCC3)oc2C)cc1F` had an RP-LC retention time of 701 s.

`COc1cccc(C(=O)N2CCC3(CC2)NC(=O)c2cc(Cl)ccc2N3C)c1` returned an RP-LC retention time of 800 s.

Compound `CCOc1ccc(CNC(=O)C2CCCN(C(=O)c3[nH]c(C)c(C(=O)OC)c3C)C2)cc1` (stereo not drawn) showed an RP-LC retention time of 751 s.

The compound `O=C(CCc1c(-c2ccc(Br)cc2)nc2ccccn12)NC1CCCCC1` had an RP-LC retention time of 702 s.

Regarding `Cc1ccc(C)c(-c2cc3c4nnc(CCC(=O)N5CCC(C(N)=O)CC5)n4ccn3n2)c1`, the RP-LC retention time stood at 669 s.

The compound `CN1CCC(OC2CCN(C(=O)c3ccc(Br)o3)CC2)CC1` displayed an RP-LC retention time of 597 s.

In the case of `COCCCNC(=O)c1nnc(-c2ccc(S(=O)(=O)N3CCC(C)CC3)cc2)o1`, the RP-LC retention time amounted to 762 s.

The compound `CC(C)CC(=O)N1CCc2c(c(-c3nncn3C(C)C)nn2C)C1` returned an RP-LC retention time of 682 s.

Take `CCCn1cc(SCC(=O)Nc2cc(C)on2)c2ccccc21`: the RP-LC retention time stood at 883 s.

Consider `O=C(Cc1nnc(-c2cnccn2)o1)Nc1ccc(C(F)(F)F)cc1`, for which the RP-LC retention time turned out to be 766 s.

`Cc1nc(OCC(=O)Nc2cccc(C(F)(F)F)c2)c2ccccc2n1` displayed an RP-LC retention time of 817 s.

For `CCN1CCC2(CC1)OC(=O)C(C)=C2C(=O)NCCc1ccccc1`, the RP-LC retention time amounted to 617 s.

`Cn1cc(C(=O)N2CCC(c3noc(-c4ccccc4)n3)C2)cn1` (stereo not drawn) registered an RP-LC retention time of 712 s.

`O=C(Nc1ccc2c(c1)CCC2)C1CCc2nc(N3CCCCC3)ncc2C1` (stereo not drawn) registered an RP-LC retention time of 905 s.

`CCn1c(=O)c(N2CCN(C(=O)NC3CCCCC3)CC2)nc2ccccc21` gave an RP-LC retention time of 919 s.

As to `COc1ccc(NC(=O)CSc2nnc3c4sc(N5CCCC5)nc4ncn23)cc1`, the RP-LC retention time stood at 754 s.

Consider `O=C([C@@H]1C[C@H](F)CN1S(=O)(=O)c1ccc(C(F)(F)F)cc1)N1CCCCC1`, for which the RP-LC retention time stood at 885 s.

For `O=C(c1c[nH]c2ccccc12)N1C[C@@H]2C[C@H]1C[C@@H]2NS(=O)(=O)c1ccccc1`, the RP-LC retention time was 679 s.

`O=C(NCc1cccnc1)C1CCN(Cc2cc3ccccc3n2Cc2ccccc2)CC1` returned an RP-LC retention time of 624 s.

`Cc1ccc(C(=O)Nc2c(C(=O)NCc3ccc4c(c3)OCO4)[nH]c3ccc(C)cc23)cc1` came in with an RP-LC retention time of 979 s.

In the case of `CCc1csc(-c2ccc(N3CCN(C(=O)c4ccc(OC)c(F)c4)CC3)nc2)n1`, the RP-LC retention time is 936 s.

In the case of `COc1cc(OC)cc(-c2noc(Cn3c(=O)n(CC(C)C)c(=O)c4ccccc43)n2)c1`, the RP-LC retention time was 1160 s.

As to `Cc1ccc(-c2nc3ccccn3c2NC(=O)NCc2ccc(F)cc2)cc1`, the RP-LC retention time turned out to be 681 s.

`O=C(NCc1ccncc1)C1CC(=O)N(c2ccc3c(c2)CCN3C(=O)C2CC2)C1` (stereo not drawn) displayed an RP-LC retention time of 573 s.

`CCc1ccc(-n2ncc3c(=O)n(Cc4nc(-c5ccccc5)no4)cnc32)cc1` yielded an RP-LC retention time of 1160 s.

`CCC(=O)N1CCc2sc(S(=O)(=O)N3CCN(c4ccc(C)cc4)CC3)cc2C1` had an RP-LC retention time of 1000 s.

`O=C(NCCC1=CCCCC1)c1nnc(-c2ccc(S(=O)(=O)N3CCCCC3)cc2)o1` returned an RP-LC retention time of 1160 s.

On to `CCCOc1nc2ccccc2nc1N1CCCC(C(=O)NCc2ccc(Cl)cc2)C1` (stereo not drawn), for which the RP-LC retention time is 1270 s.

Regarding `CCn1cc(S(=O)(=O)N[C@@H]2CN(Cc3ccccn3)C[C@H]2CN(C)C)cn1`, the RP-LC retention time was determined as 524 s.

Regarding `CCn1cc(-c2ccccc2)cc1C(=O)NC(C)c1cccnc1` (stereo not drawn), the RP-LC retention time came out at 692 s.

`COc1cccc(C(=O)Nc2cc(-c3ccccn3)no2)c1` registered an RP-LC retention time of 788 s.

Consider `CCNc1cc(N2CCCC(CCC(=O)NCc3ccccc3C)C2)ncn1` (stereo not drawn), for which the RP-LC retention time is 672 s.

In turn, `COc1cccc(CNC(=O)CN2C(=O)NC(c3ccccc3Cl)C3=C2COC3=O)c1` (stereo not drawn) showed an RP-LC retention time of 780 s.

In turn, `COc1ccc(C)cc1NC(=O)c1cc(C)n2nccc2n1` yielded an RP-LC retention time of 1050 s.

As to `CC(C)n1cnc(S(=O)(=O)N2CCC(C(=O)NCc3ccc(Br)cc3)CC2)c1`, the RP-LC retention time was found to be 782 s.

Regarding `Cc1cc(N2CCN(C(=O)CCc3ccccc3)CC2)nc2nncn12`, the RP-LC retention time came out at 616 s.
